{"source": "paper PMC11667226", "about": "(Theranostics, 2025)", "key": {"uPAR": {"biological_target": "T1, uPAR (Homo sapiens, UniProt Q03405)", "T1 construct": "from tissue", "T1 sequence (Q03405 23-335)": "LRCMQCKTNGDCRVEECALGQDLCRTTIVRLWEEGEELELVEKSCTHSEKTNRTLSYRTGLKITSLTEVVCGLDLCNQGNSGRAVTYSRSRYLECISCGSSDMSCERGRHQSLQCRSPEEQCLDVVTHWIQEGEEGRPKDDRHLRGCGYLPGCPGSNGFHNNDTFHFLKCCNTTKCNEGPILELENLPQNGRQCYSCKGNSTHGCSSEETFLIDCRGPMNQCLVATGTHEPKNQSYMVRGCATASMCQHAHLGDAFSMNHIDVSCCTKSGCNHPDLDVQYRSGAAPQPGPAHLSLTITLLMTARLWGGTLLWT", "assay": "Morphological co-localization between FG001 signal, tumor tissue and uPAR expression (Typhoon/Odyssey scan, IHC, H&E)", "text": "For 5 out of the 16 patients, the resected tumor specimens were cut in half, sliced at the OR, and imaged with the Elevision® imaging system. The specimens underwent routine pathologic processing at the Department of Pathology. The slices were frozen with a Milestone PrestoCHILL cryoembedder/freezer and, cut into 8 µm tissue slices with a Leica® CM1860 Cryostat and placed on glass slides. To evaluate the overlap between fluorescence signal from FG001, uPAR-expression, and tumor tissue, the cryosections were first fluorescently scanned with an Amersham Typhoon^TM scanner from Cytiva and, thereafter, stained using immunohistochemistry for uPAR and Cytokeratin (CK), and hematoxylin and eosin (H&E) stained. The Typhoon^TM scanner settings were PMT: 350-500 V and excitation wavelength: 785 nm. The immunohistochemical staining for uPAR was performed with the antibody GTX100467 (Gentex, USA), and Cytokeratin with M351529-2 Dako (Agilent). The H&E stain was performed according to standard practice. All tissue slides were scanned with the high-resolution AxioScan 7 (Zeiss, Germany). […]\nThe different stained tissue sections were aligned using the BigWarp plugin in Fiji (NIH, open-source version: 1.54f) software. A pathologist delineated the tumors, and the fluorescence imaging generated from the Typhoon scanner was overlayed on the HE stains using ImageJ (NIH, open source), (see Figure 3M)."}, "[1]": {"test_system": "oral and oropharyngeal squamous cell carcinoma (OSCC, OPSCC)", "assay": "Sensitivity of FG001 optical imaging for tumor detection, verified by histology", "format": "in vivo, human", "settings": "16 patients with OSCC/OPSCC; FG001 36, 16 or 4 mg i.v. the evening prior to surgery; 11 optically guided biopsies and 5 cross-section samples", "protocol": "For 11 out of 16 patients, a single biopsy was sampled from the resected tumor specimen ex-vivo on the back-table from a region with a bright fluorescence presented by the imaging system. For the remaining 5 patients, the tumors were cross-sectioned for detailed optical imaging and histopathological processing (see next section). The back-table imaging was performed with the same settings (Image profile: NIR_highcontrast or NIR_contrast, excitation laser: 805 nm) and with no other light sources, always with a perpendicular angle to the table, and a camera-to-tumor distance of 20 centimeters. The biopsies were taken with biopsy-punch-forceps, hereafter formalin (4%) fixed, paraffin-embedded (i.e. FFPE), and evaluated with histopathological assessment by a pathologist for the presence of cancer tissue - concluding on cancer-positive or negative.\nFor 5 out of the 16 patients, the resected tumor specimens were cut in half, sliced at the OR, and imaged with the Elevision® imaging system. The specimens underwent routine pathologic processing at the Department of Pathology. […] To evaluate the overlap between fluorescence signal from FG001, uPAR-expression, and tumor tissue, the cryosections were first fluorescently scanned with an Amersham Typhoon^TM scanner from Cytiva and, thereafter, stained using immunohistochemistry for uPAR and Cytokeratin (CK), and hematoxylin and eosin (H&E) stained. […]"}, "[2]": {"test_system": "oral and oropharyngeal squamous cell carcinoma (OSCC, OPSCC)", "assay": "Intraoperative near-infrared optical imaging: tumor-to-background ratio and absolute intensities (Elevision)", "format": "in vivo, human", "settings": "for TBR (mean (range)): preoperative NIR image, max tumor ROI / mean of 3 background ROIs, Elevision, 805 nm", "protocol": "(§1) All patients were treated surgically according to the national guidelines. The primary investigator (PI) was part of the surgical team in all procedures. A surgical robot system (DaVinci Si, Intuitive) was used for TORS in the two patients with OPSCC. The surgeons were not allowed to resect tissue based on intraoperative detected fluorescence signal but complied with standard of care. Depending on the clinical TNM staging (based on clinical examination, ultrasonography examination of the neck, and MRI or CT scans), either sentinel lymph node biopsy (using 99^mTc-nanocoll) or neck dissection was performed for neck management. Post-surgical (chemo)radiation was prescribed according to national guidelines at a multidisciplinary conference. The pre-, intraoperative, and ex-vivo optical images were obtained using the open-field imaging system Elevision® model VS3 Iridium-Visionsense Infrared (IR) Fluorescence, Vision System (Medtronics, USA). Image profile: NIR_highcontrast or NIR_contrast, excitation laser: 805 nm. The Elevision IR system generates real-time optical imaging merged with the color video recording on a viewer screen. The intensity-dependent multi-color NIR overlay was presented in parallel with white-light and NIR grayscale images. The camera head was mounted on a maneuverable arm over the surgical field with sterile draping. The preferred camera-to-tumor distance was 20-40 centimeters, but the system also allows positioning at closer or longer distances to areas of interest. For optimal imaging, all other light sources in the OR were switched off and window blinds were closed. The imaging system itself provides powerful white light illumination of the surgical field when imaging is performed.\nAll images and videos were stored in JPG- and mp4-file format. The following images were captured for all 16 patients who completed the trial: 1) Preoperative images of the tumor. 2) Intraoperative images of the tumor and metastatic lymph nodes. 3) Images of the surgical cavity (i.e., tumor bed) after tumor resection. 4) Ex-vivo images of the resected tumor specimen on the back-table, see Figure 2.\nFor imaging analysis, the TBR was calculated as the maximum fluorescence intensity of the tumor region of interest (ROI) divided by the mean fluorescence intensity of 3 background ROIs on a preoperative NIR image by use of an in-house designed Python-based annotation tool. The tumor ROIs were drawn based on information from intraoperative clinical observations, and preoperative white-light and NIR images. Background ROIs were defined within the soft tissues adjacent to the tumor. The absolute numeric intensities were obtained by adjusting the fluorescence intensity for the specific gain values applied by the imaging system."}, "[3]": {"test_system": "neck lymph node metastasis", "assay": "Optical visualization of neck lymph node metastasis", "format": "in vivo, human", "protocol": "as §1\nThe exploratory endpoints were defined as: 1) Morphological co-localization between optical signal, tumor tissue, and target (i.e. uPAR) expression, 2) Optical visualization of local neck lymph node metastasis, and 3) Longitudinal investigation of the optimal signal intensity for intraoperative imaging."}, "[4]": {"settings": "40 patients with malignant glioblastoma, 1 to 48 mg; ref [15],[33]; cited from earlier work"}}, "note": "Marks after values point to notes of the source that are not given here. Non-standard residues stand in square brackets, D forms with d. Residues, ends and D or L forms follow the SMILES beside them. *: point of attachment. X1 = CC1(C)C(=CC=CC=CC=CC2=[N+](CCCCCC(=O)*)c3ccc4ccccc4c3C2(C)C)N(CCCCS(=O)(=O)[O-])c2ccc3ccccc3c21; Cha = N[C@@H](CC1CCCCC1)C(=O)O", "data": [{"smiles": "CC(C)C[C@H](NC(=O)[C@H](Cc1ccc(O)cc1)NC(=O)[C@@H](CCCNC(=N)N)NC(=O)[C@@H](CO)NC(=O)[C@H](Cc1ccccc1)NC(=O)[C@H](CC1CCCCC1)NC(=O)[C@H](CC(=O)O)NC(=O)[C@H](CCC(=O)O)NC(=O)[C@H](CCC(=O)O)NC(=O)CCCCC[N+]1=C(C=CC=CC=CC=C2N(CCCCS(=O)(=O)[O-])c3ccc4ccccc4c3C2(C)C)C(C)(C)c2c1ccc1ccccc21)C(=O)N[C@@H](Cc1c[nH]c2ccccc12)C(=O)N[C@@H](CO)C(=O)O", "note": "[FG001, ICG-Glu-Glu-AE105] (X1-EED[Cha]F[dS][dR]YLWS-OH; N-terminus and C-terminus assumed)", "values": [{"measurement": "Optical signal in resected cancer tissues after formalin fixation and paraffin embedding", "setting": "uPAR; days following surgery", "result": "preserved"}, {"measurement": "Co-localization between uPAR-expression and FG001 fluorescence signal", "setting": "uPAR; microscopic fluorescence imaging, tumor cross-sections of 5 patients across the 3 dose cohorts", "result": "high level of co-localization"}, {"measurement": "Sensitivity for tumor detection verified by histology", "setting": "[1]", "result": 100, "unit": "%"}, {"measurement": "TBR (mean (range))", "setting": "[2]; FG001 4 mg i.v., n = 4 completed", "result": "3.07 (2.30 - 3.48)*"}, {"measurement": "TBR (mean (range))", "setting": "[2]; FG001 16 mg i.v., n = 8", "result": "2.91 (2.02 - 3.95)"}, {"measurement": "TBR (mean (range))", "setting": "[2]; FG001 36 mg i.v., n = 4", "result": "3.08 (2.68 - 3.46)"}, {"measurement": "TBR (contrast for demarcation of tumors), consistently", "setting": "[2]; all patients, even at the lowest dose", "result": "above 2"}, {"measurement": "Intraoperative visualization of clinical neck metastasis", "setting": "[3]; during neck dissection, confirmed on back table and by pathology", "result": "clearly visualized"}, {"measurement": "Uptake in adjacent unaffected lymph nodes", "setting": "[3]; no systematic imaging of lymph nodes without clinical evidence of metastasis", "result": "No uptake"}, {"measurement": "Optical signal of harvested sentinel nodes", "setting": "[3]; two cases with SNB staging, nodes all negative for metastatic deposits on final pathology", "result": "absent or weak optical signal"}, {"measurement": "Grade I drug-related adverse events, number", "setting": "[4]", "result": 3}, {"measurement": "Grade II drug-related adverse events, number", "setting": "[4]", "result": 1}, {"measurement": "Safety and tolerability", "setting": "[4]", "result": "safe and well-tolerated"}]}]}
